Reference: the NIST ThermoML archive (doi:10.1016/j.jct.2012.03.031)
Numbers after ± are expanded uncertainties.

Conditions: Crystal 1; visual observation

Triple point temperature: 288.43 ± 0.39 K
Compound: CCCCc1ccc(C(=O)Oc2ccc(C#N)c(F)c2)cc1 [4-cyano-3-fluorophenyl 4-butylbenzoate]
